{
  "source": "patent US11291200B2",
  "about": "“Application of viable cell monitor to cryopreservation of plant cells” (EAST CHINA UNIVERSITY OF SCIENCE AND TECHNOLOGY, priority 2016, dated 2022)",
  "key": {"[1]": {"system": "suspension cells from Siraitia grosvenorii", "assay": "Cell viability evaluation by viable cell monitor (viable cell capacitance, viability preservation rate after cryopreservation)", "assay_type": "cell-based", "details": "for A1 (viable cell capacitance of the pre-treated cell): before freezing; for A3 (basal capacitance of the cell): cell death totally; for A2 (viable cell capacitance after resuscitation) / Viability preservation rate: -80° C. 24 h", "description": "Taking a certain number of cells in the logarithmic growth phase for centrifugation (or sedimentation) and adding an equal amount of pre-treatment fluids after removing the supernatant. […] Pre-treated cells are centrifuged. Adding cryoprotectants after removing the supernatant and incubating at 0-4° C. and 110 rpm for 45 min. After incubation, the cells are first cooled at −20° C. for 40 min and then cooled in the −80° C. cryogenic refrigerator. Frozen cells are thawed in a water bath at 39° C., for 2-3 min. […] Mixing evenly the suspension cells and then measuring the capacitance of viable cells with a viable cell monitor. The viable cell capacitance of the pre-treated cell is denoted as A1; the viable cell capacitance after resuscitation is denoted as A2; and the basal capacitance of the cell is denoted as A3 (capacitance when cell death totally). […] The basic capacitance of cells: the cell suspension is boiled in boiling water for 1 h, and then subjected to ultrasonication for 40 min. The capacitance measured is the basic capacitance."}, "[2]": {"system": "suspension cells from Siraitia grosvenorii", "assay": "Measurement of mitochondrial activity (TTC) after cryopreservation", "assay_type": "cell-based", "details": "for TTC value score: per-level statistic of Table 1; for TTC value/100 mg of cells: -80° C. 24 h", "description": "After mixing evenly, performing dark culture at 25° C. for 16 h. After the dark culture, the supernatant is removed by centrifugation and the cells are washed with distilled water three times. Adding with 4 mL of methanol and placing in a 60° C. water bath for 50 min, gently blow twice with a pipette tip until the cells have detached to colourless."}, "[3]": {"details": "Siraitia grosvenorii, 45 min, 5 %"}, "[4]": {"details": "Siraitia grosvenorii, 45 min, 10 %"}, "[5]": {"details": "0.2 M sucrose as pre-treatment agent, cryoprotectant liquid medium+10% DMSO+10% sucrose, compared with the control without pre-treatment"}, "[6]": {"details": "0.2 M sucrose pre-treatment time 1 h"}, "[7]": {"details": "0.2 M sucrose pre-treatment time 1 h, liquid medium+10% DMSO+10% sucrose"}, "[8]": {"details": "0.2 M sucrose pre-treatment time 2 h"}, "[9]": {"details": "0.2 M sucrose pre-treatment time 2 h, liquid medium+10% DMSO+10% sucrose"}, "[10]": {"details": "0.2 M sucrose pre-treatment time 5 h"}, "[11]": {"details": "0.2 M sucrose pre-treatment time 5 h, liquid medium+10% DMSO+10% sucrose"}, "[12]": {"details": "0.2 M sucrose pre-treatment time 9 h"}, "[13]": {"details": "0.2 M sucrose pre-treatment time 9 h, liquid medium+10% DMSO+10% sucrose"}, "[14]": {"details": "0.2 M sucrose pre-treatment time 22 h"}, "[15]": {"details": "0.2 M sucrose pre-treatment time 22 h, liquid medium+10% DMSO+10% sucrose"}, "[16]": {"details": "0.2 M sucrose pre-treatment time 46 h"}, "[17]": {"details": "0.2 M sucrose pre-treatment time 46 h, liquid medium+10% DMSO+10% sucrose"}, "[18]": {"details": "pre-treatment agent 0.2M, frozen medium liquid medium+10% DMSO+10% sucrose"}, "[19]": {"details": "pre-treatment agent 0.35M, frozen medium liquid medium+10% DMSO+10% sucrose"}, "[20]": {"details": "pre-treatment agent 0.5M, frozen medium liquid medium+10% DMSO+10% sucrose"}},
  "data": [
    {"smiles": "C[S+](C)[O-]", "note": "[DMSO, dimethyl sulfoxide]", "values": [
      {"measurement": "Viability preservation rate score", "setting": "[1]; [3]", "result": 35.90, "unit": "%"},
      {"measurement": "Viability preservation rate score", "setting": "[1]; [4]", "result": 37.09, "unit": "%"},
      {"measurement": "TTC value score", "setting": "[2]; cryoprotectant level 5%", "result": 0.633},
      {"measurement": "TTC value score", "setting": "[2]; cryoprotectant level 10%", "result": 0.792}
    ]},
    {"smiles": "OC[C@H]1O[C@@](CO)(O[C@H]2O[C@H](CO)[C@@H](O)[C@H](O)[C@H]2O)[C@@H](O)[C@@H]1O", "note": "[Sucrose, sucrose]", "values": [
      {"measurement": "increase of cell viability preservation rate", "setting": "[1]; [5]", "result": 29.18, "unit": "%"},
      {"measurement": "A1 (viable cell capacitance of the pre-treated cell)", "setting": "[1]; [6]", "result": 62.11, "unit": "pF/cm"},
      {"measurement": "A3 (basal capacitance of the cell)", "setting": "[1]; [6]", "result": 8.41, "unit": "pF/cm"},
      {"measurement": "A2 (viable cell capacitance after resuscitation)", "setting": "[1]; [7]", "result": 14.46, "unit": "pF/cm"},
      {"measurement": "A1 (viable cell capacitance of the pre-treated cell)", "setting": "[1]; [8]", "result": 61.68, "unit": "pF/cm"},
      {"measurement": "A3 (basal capacitance of the cell)", "setting": "[1]; [8]", "result": 8.78, "unit": "pF/cm"},
      {"measurement": "A2 (viable cell capacitance after resuscitation)", "setting": "[1]; [9]", "result": 15.63, "unit": "pF/cm"},
      {"measurement": "A1 (viable cell capacitance of the pre-treated cell)", "setting": "[1]; [10]", "result": 61.19, "unit": "pF/cm"},
      {"measurement": "A3 (basal capacitance of the cell)", "setting": "[1]; [10]", "result": 11.09, "unit": "pF/cm"},
      {"measurement": "A2 (viable cell capacitance after resuscitation)", "setting": "[1]; [11]", "result": 21.21, "unit": "pF/cm"},
      {"measurement": "A1 (viable cell capacitance of the pre-treated cell)", "setting": "[1]; [12]", "result": 58.51, "unit": "pF/cm"},
      {"measurement": "A3 (basal capacitance of the cell)", "setting": "[1]; [12]", "result": 11.3, "unit": "pF/cm"},
      {"measurement": "A2 (viable cell capacitance after resuscitation)", "setting": "[1]; [13]", "result": 25.85, "unit": "pF/cm"},
      {"measurement": "A1 (viable cell capacitance of the pre-treated cell)", "setting": "[1]; [14]", "result": 56.48, "unit": "pF/cm"},
      {"measurement": "A3 (basal capacitance of the cell)", "setting": "[1]; [14]", "result": 10.43, "unit": "pF/cm"},
      {"measurement": "A2 (viable cell capacitance after resuscitation)", "setting": "[1]; [15]", "result": 22.86, "unit": "pF/cm"},
      {"measurement": "A1 (viable cell capacitance of the pre-treated cell)", "setting": "[1]; [16]", "result": 45.92, "unit": "pF/cm"},
      {"measurement": "A3 (basal capacitance of the cell)", "setting": "[1]; [16]", "result": 10.94, "unit": "pF/cm"},
      {"measurement": "A2 (viable cell capacitance after resuscitation)", "setting": "[1]; [17]", "result": 14.60, "unit": "pF/cm"},
      {"measurement": "Viability preservation rate score", "setting": "[1]; [3]", "result": 31.15, "unit": "%"},
      {"measurement": "Viability preservation rate score", "setting": "[1]; [4]", "result": 42.98, "unit": "%"},
      {"measurement": "A1 (viable cell capacitance of the pre-treated cell)", "setting": "[1]; pre-treatment agent 0.2M", "result": 42.25, "unit": "pF/cm"},
      {"measurement": "A3 (basal capacitance of the cell)", "setting": "[1]; pre-treatment agent 0.2M", "result": 10.00, "unit": "pF/cm"},
      {"measurement": "A2 (viable cell capacitance after resuscitation)", "setting": "[1]; [18]", "result": 26.44, "unit": "pF/cm"},
      {"measurement": "A1 (viable cell capacitance of the pre-treated cell)", "setting": "[1]; pre-treatment agent 0.35M", "result": 30.55, "unit": "pF/cm"},
      {"measurement": "A3 (basal capacitance of the cell)", "setting": "[1]; pre-treatment agent 0.35M", "result": 8.49, "unit": "pF/cm"},
      {"measurement": "A2 (viable cell capacitance after resuscitation)", "setting": "[1]; [19]", "result": 17.01, "unit": "pF/cm"},
      {"measurement": "A1 (viable cell capacitance of the pre-treated cell)", "setting": "[1]; pre-treatment agent 0.5M", "result": 24.62, "unit": "pF/cm"},
      {"measurement": "A3 (basal capacitance of the cell)", "setting": "[1]; pre-treatment agent 0.5M", "result": 6.03, "unit": "pF/cm"},
      {"measurement": "A2 (viable cell capacitance after resuscitation)", "setting": "[1]; [20]", "result": 11.81, "unit": "pF/cm"},
      {"measurement": "increase of mitochondrial activity (TTC value)", "setting": "[2]; [5]", "result": 36.72, "unit": "%"},
      {"measurement": "TTC value/100 mg of cells", "setting": "[2]; [7]", "result": 0.195},
      {"measurement": "TTC value/100 mg of cells", "setting": "[2]; [9]", "result": 0.201},
      {"measurement": "TTC value/100 mg of cells", "setting": "[2]; [11]", "result": 0.225},
      {"measurement": "TTC value/100 mg of cells", "setting": "[2]; [13]", "result": 0.376},
      {"measurement": "TTC value/100 mg of cells", "setting": "[2]; [15]", "result": 0.319},
      {"measurement": "TTC value/100 mg of cells", "setting": "[2]; [17]", "result": 0.106},
      {"measurement": "TTC value score", "setting": "[2]; cryoprotectant level 5%", "result": 0.506},
      {"measurement": "TTC value score", "setting": "[2]; cryoprotectant level 10%", "result": 0.847},
      {"measurement": "TTC value/100 mg of cells", "setting": "[2]; [18]", "result": 0.916},
      {"measurement": "TTC value/100 mg of cells", "setting": "[2]; [19]", "result": 0.479},
      {"measurement": "TTC value/100 mg of cells", "setting": "[2]; [20]", "result": 0.232}
    ]},
    {"smiles": "OC[C@H]1O[C@H](O[C@H]2O[C@H](CO)[C@@H](O)[C@H](O)[C@H]2O)[C@H](O)[C@@H](O)[C@@H]1O", "note": "[Trehalose, trehalose]", "values": [
      {"measurement": "A1 (viable cell capacitance of the pre-treated cell)", "setting": "[1]; pre-treatment agent 0.2M", "result": 41.05, "unit": "pF/cm"},
      {"measurement": "A3 (basal capacitance of the cell)", "setting": "[1]; pre-treatment agent 0.2M", "result": 7.77, "unit": "pF/cm"},
      {"measurement": "A2 (viable cell capacitance after resuscitation)", "setting": "[1]; [18]", "result": 23.40, "unit": "pF/cm"},
      {"measurement": "Viability preservation rate", "setting": "[1]; [18]", "result": 46.97, "unit": "%"},
      {"measurement": "A1 (viable cell capacitance of the pre-treated cell)", "setting": "[1]; pre-treatment agent 0.35M", "result": 34.06, "unit": "pF/cm"},
      {"measurement": "A3 (basal capacitance of the cell)", "setting": "[1]; pre-treatment agent 0.35M", "result": 7.09, "unit": "pF/cm"},
      {"measurement": "A2 (viable cell capacitance after resuscitation)", "setting": "[1]; [19]", "result": 18.80, "unit": "pF/cm"},
      {"measurement": "Viability preservation rate", "setting": "[1]; [19]", "result": 43.42, "unit": "%"},
      {"measurement": "A1 (viable cell capacitance of the pre-treated cell)", "setting": "[1]; pre-treatment agent 0.5M", "result": 21.20, "unit": "pF/cm"},
      {"measurement": "A3 (basal capacitance of the cell)", "setting": "[1]; pre-treatment agent 0.5M", "result": 5.50, "unit": "pF/cm"},
      {"measurement": "A2 (viable cell capacitance after resuscitation)", "setting": "[1]; [20]", "result": 10.65, "unit": "pF/cm"},
      {"measurement": "Viability preservation rate", "setting": "[1]; [20]", "result": 32.80, "unit": "%"},
      {"measurement": "TTC value/100 mg of cells", "setting": "[2]; [18]", "result": 0.767},
      {"measurement": "TTC value/100 mg of cells", "setting": "[2]; [19]", "result": 0.841},
      {"measurement": "TTC value/100 mg of cells", "setting": "[2]; [20]", "result": 0.224}
    ]},
    {"smiles": "OC[C@@H](O)[C@@H](O)[C@H](O)[C@@H](O)CO", "note": "[sorbitol]", "values": [
      {"measurement": "Viability preservation rate score", "setting": "[1]; cryoprotectant level 5%, per-level statistic of Table 1", "result": 31.20, "unit": "%"},
      {"measurement": "Viability preservation rate score", "setting": "[1]; cryoprotectant level 10%, per-level statistic of Table 1", "result": 40.65, "unit": "%"},
      {"measurement": "TTC value score", "setting": "[2]; cryoprotectant level 5%", "result": 0.652},
      {"measurement": "TTC value score", "setting": "[2]; cryoprotectant level 10%", "result": 0.846}
    ]}
  ]
}
